“Also recorded” adds a separate entry of the source.
Assays:
DMPK = biological target: T1, DMPK (Homo sapiens, UniProt Q09013); experiment: KINOMEscan; assay type: binding; settings: read-out: %Ctrl @ 1000 nM
T1 construct: purchased DiscoveRx KINOMEscan

ICK = biological target: T2, ICK (Homo sapiens, UniProt Q9UPZ9); experiment: KINOMEscan; assay type: binding; settings: read-out: %Ctrl @ 1000 nM
T2 construct: purchased DiscoveRx KINOMEscan

RET(V804L) = biological target: T3, RET(V804L) (Homo sapiens, UniProt P07949, V804L); experiment: KINOMEscan; assay type: binding; settings: read-out: %Ctrl @ 1000 nM
T3 construct: purchased DiscoveRx KINOMEscan

EPHA7 = biological target: T4, EPHA7 (Homo sapiens, UniProt Q15375); experiment: KINOMEscan; assay type: binding; settings: read-out: %Ctrl @ 1000 nM
T4 construct: purchased DiscoveRx KINOMEscan

NEK11 = biological target: T5, NEK11 (Homo sapiens, UniProt Q8NG66); experiment: KINOMEscan; assay type: binding; settings: read-out: %Ctrl @ 1000 nM
T5 construct: purchased DiscoveRx KINOMEscan

HASPIN = biological target: T6, HASPIN (Homo sapiens, UniProt Q8TF76); experiment: KINOMEscan; assay type: binding; settings: read-out: %Ctrl @ 1000 nM
T6 construct: purchased DiscoveRx KINOMEscan
T6 sequence (Q8TF76 whole entry): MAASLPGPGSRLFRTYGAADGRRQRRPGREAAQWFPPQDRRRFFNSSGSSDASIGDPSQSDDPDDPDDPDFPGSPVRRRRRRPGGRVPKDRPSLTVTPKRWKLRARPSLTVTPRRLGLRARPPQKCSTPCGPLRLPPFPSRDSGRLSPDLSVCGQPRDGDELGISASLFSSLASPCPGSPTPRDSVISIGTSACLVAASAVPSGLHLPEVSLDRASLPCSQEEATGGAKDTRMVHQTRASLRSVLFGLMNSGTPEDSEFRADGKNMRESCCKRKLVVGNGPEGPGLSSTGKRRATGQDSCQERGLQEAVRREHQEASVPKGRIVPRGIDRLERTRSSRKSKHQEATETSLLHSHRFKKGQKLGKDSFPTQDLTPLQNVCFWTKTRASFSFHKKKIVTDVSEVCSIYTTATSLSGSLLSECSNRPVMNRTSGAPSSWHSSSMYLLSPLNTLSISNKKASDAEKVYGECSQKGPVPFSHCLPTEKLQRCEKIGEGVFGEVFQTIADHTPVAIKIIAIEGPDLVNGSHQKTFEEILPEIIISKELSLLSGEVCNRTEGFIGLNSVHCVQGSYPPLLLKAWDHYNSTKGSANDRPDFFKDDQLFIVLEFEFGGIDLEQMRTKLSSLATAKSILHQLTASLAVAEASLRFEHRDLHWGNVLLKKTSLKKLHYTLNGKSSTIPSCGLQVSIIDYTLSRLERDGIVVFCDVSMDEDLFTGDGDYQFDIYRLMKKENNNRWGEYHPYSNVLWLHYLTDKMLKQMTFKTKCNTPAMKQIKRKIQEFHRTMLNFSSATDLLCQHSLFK

GAK = biological target: T7, GAK (Homo sapiens, UniProt O14976); experiment: KINOMEscan; assay type: binding; settings: read-out: %Ctrl @ 1000 nM
T7 construct: purchased DiscoveRx KINOMEscan

INSR = biological target: T8, INSR (Homo sapiens, UniProt P06213); experiment: KINOMEscan; assay type: binding; settings: read-out: %Ctrl @ 1000 nM
T8 construct: purchased DiscoveRx KINOMEscan

LZK = biological target: T9, LZK (Homo sapiens, UniProt O43283); experiment: KINOMEscan; assay type: binding; settings: read-out: %Ctrl @ 1000 nM
T9 construct: purchased DiscoveRx KINOMEscan

MUSK = biological target: T10, MUSK (Homo sapiens, UniProt O15146); experiment: KINOMEscan; assay type: binding; settings: read-out: %Ctrl @ 1000 nM
T10 construct: purchased DiscoveRx KINOMEscan

SLK = biological target: T11, SLK (Homo sapiens, UniProt Q9H2G2); experiment: KINOMEscan; assay type: binding; settings: read-out: %Ctrl @ 1000 nM
T11 construct: purchased DiscoveRx KINOMEscan

GSK3A = biological target: T12, GSK3A (Homo sapiens, UniProt P49840); experiment: KINOMEscan; assay type: binding; settings: read-out: %Ctrl @ 1000 nM
T12 construct: purchased DiscoveRx KINOMEscan

[1] = Caco2 drug permeability assay; assay type: in vitro ADME; settings: human, Caco-2, pH 7.2
Experimental: Caco-2 cells (purchased from DSMZ Braunschweig, Germany) were seeded at a density of 4.5 × 10^4 cell per well on 24-well insert plates, 0.4 μm pore size, and grown for 15 days in DMEM medium supplemented with 10% fetal bovine serum, 1% GlutaMAX (100×, GIBCO), 100 μg/mL penicillin, 100 μg/mL streptomycin (GIBCO), and 1% nonessential amino acids (100×). Cells were maintained at 37 °C in a humified 5% CO2 atmosphere. Medium was changed every second to third day. Before running the permeation assay, the culture medium was replaced by an FCS-free Hepes-carbonate transport buffer (pH 7.2). For assessment of monolayer integrity, the transepithelial electrical resistance (TEER) was measured. Test compounds were dissolved in DMSO and added either to the apical or basolateral compartment in a final concentration of 2 μM. Before and after incubation at 37 °C, samples were taken from both compartments. Analysis of compound content was performed following precipitation with methanol and LC/MS/MS analysis. Permeability (Papp) was calculated in the apical to basolateral (A → B) and basolateral to apical (B → A) directions. The apparent permeability was calculated using following equation: [drawing 3] where Vr = volume of medium in the receiver chamber, P0 = measured peak area of the test drug in the donor chamber at t = 0, S = surface area of the monolayer, P2 = measured peak area of the test drug in the acceptor chamber after incubation for 2 h, and t = incubation time. The efflux ratio basolateral (B) to apical (A) was calculated by dividing Papp (B–A) by Papp (A–B). In addition, the compound recovery was calculated. Reference compounds were analyzed in parallel as assay controls. All samples were analyzed by LC/MS/MS.

TGFBR2 = biological target: T13, TGFBR2 (Homo sapiens, UniProt P37173); experiment: KINOMEscan; assay type: binding; settings: read-out: %Ctrl @ 1000 nM
T13 construct: purchased DiscoveRx KINOMEscan
T13 sequence (P37173 23-567): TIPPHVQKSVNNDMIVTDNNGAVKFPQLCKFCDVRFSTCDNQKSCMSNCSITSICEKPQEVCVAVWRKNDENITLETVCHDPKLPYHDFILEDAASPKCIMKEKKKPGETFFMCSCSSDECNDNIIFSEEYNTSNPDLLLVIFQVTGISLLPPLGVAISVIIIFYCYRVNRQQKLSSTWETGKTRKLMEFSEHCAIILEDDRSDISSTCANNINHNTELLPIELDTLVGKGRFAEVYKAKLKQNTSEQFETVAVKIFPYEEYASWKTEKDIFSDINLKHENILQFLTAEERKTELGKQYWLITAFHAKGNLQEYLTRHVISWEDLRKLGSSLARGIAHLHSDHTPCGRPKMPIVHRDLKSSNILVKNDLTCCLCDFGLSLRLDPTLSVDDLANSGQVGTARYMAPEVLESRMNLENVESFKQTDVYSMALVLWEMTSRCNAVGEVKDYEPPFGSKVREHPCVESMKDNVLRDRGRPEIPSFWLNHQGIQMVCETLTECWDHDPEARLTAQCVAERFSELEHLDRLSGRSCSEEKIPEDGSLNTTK

CSNK2A2 = biological target: T14, CSNK2A2 (Homo sapiens, UniProt P19784); experiment: KINOMEscan; assay type: binding; settings: read-out: %Ctrl @ 1000 nM
T14 construct: purchased DiscoveRx KINOMEscan

CLK2 = biological target: T15, CLK2 (Homo sapiens, UniProt P49760); experiment: KINOMEscan; assay type: binding; settings: read-out: %Ctrl @ 1000 nM
T15 construct: purchased DiscoveRx KINOMEscan
T15 sequence (P49760 whole entry): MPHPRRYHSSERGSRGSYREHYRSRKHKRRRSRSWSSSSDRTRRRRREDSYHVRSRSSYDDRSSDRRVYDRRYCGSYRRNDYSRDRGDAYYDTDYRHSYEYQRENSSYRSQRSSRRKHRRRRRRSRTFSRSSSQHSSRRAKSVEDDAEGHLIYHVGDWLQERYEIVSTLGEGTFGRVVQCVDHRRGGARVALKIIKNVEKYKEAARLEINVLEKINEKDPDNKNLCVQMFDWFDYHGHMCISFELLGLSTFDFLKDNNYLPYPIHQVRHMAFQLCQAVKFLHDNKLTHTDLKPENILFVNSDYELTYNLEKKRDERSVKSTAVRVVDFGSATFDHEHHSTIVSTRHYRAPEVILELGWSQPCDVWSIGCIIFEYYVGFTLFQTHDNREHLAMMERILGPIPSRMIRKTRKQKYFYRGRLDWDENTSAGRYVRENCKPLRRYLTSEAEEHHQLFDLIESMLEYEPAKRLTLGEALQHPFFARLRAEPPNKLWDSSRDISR

KIT = biological target: T16, KIT (Homo sapiens, UniProt P10721); experiment: KINOMEscan; assay type: binding; settings: read-out: %Ctrl @ 1000 nM
T16 construct: purchased DiscoveRx KINOMEscan

HIPK4 = biological target: T17, HIPK4 (Homo sapiens, UniProt Q8NE63); experiment: KINOMEscan; assay type: binding; settings: read-out: %Ctrl @ 1000 nM
T17 construct: purchased DiscoveRx KINOMEscan

NEK2 = biological target: T18, NEK2 (Homo sapiens, UniProt P51955); experiment: KINOMEscan; assay type: binding; settings: read-out: %Ctrl @ 1000 nM
T18 construct: purchased DiscoveRx KINOMEscan

[2] = biological target: T19, TYK2(JH2domain-pseudokinase) (Homo sapiens, UniProt P29597); experiment: KINOMEscan; assay type: binding; settings: read-out: %Ctrl @ 1000 nM
T19 construct: TYK2(JH2domain-pseudokinase); purchased DiscoveRx KINOMEscan

RIOK3 = biological target: T20, RIOK3 (Homo sapiens, UniProt O14730); experiment: KINOMEscan; assay type: binding; settings: read-out: %Ctrl @ 1000 nM
T20 construct: purchased DiscoveRx KINOMEscan
T20 sequence (O14730 whole entry): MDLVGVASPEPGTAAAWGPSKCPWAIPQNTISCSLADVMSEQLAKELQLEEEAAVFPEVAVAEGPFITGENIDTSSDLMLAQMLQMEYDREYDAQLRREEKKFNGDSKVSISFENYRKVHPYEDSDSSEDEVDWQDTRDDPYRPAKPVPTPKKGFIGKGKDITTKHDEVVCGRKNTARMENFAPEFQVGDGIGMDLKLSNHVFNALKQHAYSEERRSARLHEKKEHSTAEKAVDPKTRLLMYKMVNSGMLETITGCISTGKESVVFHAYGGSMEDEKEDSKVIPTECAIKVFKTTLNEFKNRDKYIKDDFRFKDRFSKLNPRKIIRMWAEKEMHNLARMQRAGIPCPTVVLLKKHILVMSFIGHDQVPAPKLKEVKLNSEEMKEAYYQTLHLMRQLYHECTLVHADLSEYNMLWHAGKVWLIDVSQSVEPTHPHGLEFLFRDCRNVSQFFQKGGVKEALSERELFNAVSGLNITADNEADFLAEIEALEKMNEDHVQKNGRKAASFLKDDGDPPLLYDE

EGFR(E746-A750del) = biological target: T21, EGFR(E746-A750del) (Homo sapiens, UniProt P00533, DEL746-750); experiment: KINOMEscan; assay type: binding; settings: read-out: %Ctrl @ 1000 nM
T21 construct: purchased DiscoveRx KINOMEscan

SRMS = biological target: T22, SRMS (Homo sapiens, UniProt Q9H3Y6); experiment: KINOMEscan; assay type: binding; settings: read-out: %Ctrl @ 1000 nM
T22 construct: purchased DiscoveRx KINOMEscan

LOK = biological target: T23, LOK (Homo sapiens, UniProt O94804); experiment: KINOMEscan; assay type: binding; settings: read-out: %Ctrl @ 1000 nM
T23 construct: purchased DiscoveRx KINOMEscan

HIPK3 = biological target: T24, HIPK3 (Homo sapiens, UniProt Q9H422); experiment: KINOMEscan; assay type: binding; settings: read-out: %Ctrl @ 1000 nM
T24 construct: purchased DiscoveRx KINOMEscan

LIMK1 = biological target: T25, LIMK1 (Homo sapiens, UniProt P53667); experiment: KINOMEscan; assay type: binding; settings: read-out: %Ctrl @ 1000 nM
T25 construct: purchased DiscoveRx KINOMEscan

ERK8 = biological target: T26, ERK8 (Homo sapiens, UniProt Q8TD08); experiment: KINOMEscan; assay type: binding; settings: read-out: %Ctrl @ 1000 nM
T26 construct: purchased DiscoveRx KINOMEscan
T26 sequence (Q8TD08 whole entry): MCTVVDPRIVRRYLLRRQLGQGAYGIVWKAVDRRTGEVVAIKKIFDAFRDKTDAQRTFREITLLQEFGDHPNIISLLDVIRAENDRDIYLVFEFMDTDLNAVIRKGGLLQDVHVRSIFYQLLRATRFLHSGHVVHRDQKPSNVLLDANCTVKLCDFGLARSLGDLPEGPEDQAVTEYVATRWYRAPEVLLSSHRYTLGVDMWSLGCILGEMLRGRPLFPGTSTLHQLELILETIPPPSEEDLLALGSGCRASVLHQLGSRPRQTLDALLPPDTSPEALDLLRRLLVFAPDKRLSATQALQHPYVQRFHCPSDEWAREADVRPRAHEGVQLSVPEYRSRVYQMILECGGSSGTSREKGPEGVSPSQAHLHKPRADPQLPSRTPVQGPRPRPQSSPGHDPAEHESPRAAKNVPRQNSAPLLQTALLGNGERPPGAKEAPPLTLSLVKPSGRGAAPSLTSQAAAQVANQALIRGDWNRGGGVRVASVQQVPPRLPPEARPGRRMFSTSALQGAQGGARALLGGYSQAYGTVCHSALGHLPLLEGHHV

PAK6 = biological target: T27, PAK6 (Homo sapiens, UniProt Q9NQU5); experiment: KINOMEscan; assay type: binding; settings: read-out: %Ctrl @ 1000 nM
T27 construct: purchased DiscoveRx KINOMEscan

PIK3CA(E542K) = biological target: T28, PIK3CA(E542K) (Homo sapiens, UniProt P42336, E542K); experiment: KINOMEscan; assay type: binding; settings: read-out: %Ctrl @ 1000 nM
T28 construct: purchased DiscoveRx KINOMEscan

MLK3 = biological target: T29, MLK3 (Homo sapiens, UniProt Q16584); experiment: KINOMEscan; assay type: binding; settings: read-out: %Ctrl @ 1000 nM
T29 construct: purchased DiscoveRx KINOMEscan

MAST1 = biological target: T30, MAST1 (Homo sapiens, UniProt Q9Y2H9); experiment: KINOMEscan; assay type: binding; settings: read-out: %Ctrl @ 1000 nM
T30 construct: purchased DiscoveRx KINOMEscan
T30 sequence (Q9Y2H9 whole entry): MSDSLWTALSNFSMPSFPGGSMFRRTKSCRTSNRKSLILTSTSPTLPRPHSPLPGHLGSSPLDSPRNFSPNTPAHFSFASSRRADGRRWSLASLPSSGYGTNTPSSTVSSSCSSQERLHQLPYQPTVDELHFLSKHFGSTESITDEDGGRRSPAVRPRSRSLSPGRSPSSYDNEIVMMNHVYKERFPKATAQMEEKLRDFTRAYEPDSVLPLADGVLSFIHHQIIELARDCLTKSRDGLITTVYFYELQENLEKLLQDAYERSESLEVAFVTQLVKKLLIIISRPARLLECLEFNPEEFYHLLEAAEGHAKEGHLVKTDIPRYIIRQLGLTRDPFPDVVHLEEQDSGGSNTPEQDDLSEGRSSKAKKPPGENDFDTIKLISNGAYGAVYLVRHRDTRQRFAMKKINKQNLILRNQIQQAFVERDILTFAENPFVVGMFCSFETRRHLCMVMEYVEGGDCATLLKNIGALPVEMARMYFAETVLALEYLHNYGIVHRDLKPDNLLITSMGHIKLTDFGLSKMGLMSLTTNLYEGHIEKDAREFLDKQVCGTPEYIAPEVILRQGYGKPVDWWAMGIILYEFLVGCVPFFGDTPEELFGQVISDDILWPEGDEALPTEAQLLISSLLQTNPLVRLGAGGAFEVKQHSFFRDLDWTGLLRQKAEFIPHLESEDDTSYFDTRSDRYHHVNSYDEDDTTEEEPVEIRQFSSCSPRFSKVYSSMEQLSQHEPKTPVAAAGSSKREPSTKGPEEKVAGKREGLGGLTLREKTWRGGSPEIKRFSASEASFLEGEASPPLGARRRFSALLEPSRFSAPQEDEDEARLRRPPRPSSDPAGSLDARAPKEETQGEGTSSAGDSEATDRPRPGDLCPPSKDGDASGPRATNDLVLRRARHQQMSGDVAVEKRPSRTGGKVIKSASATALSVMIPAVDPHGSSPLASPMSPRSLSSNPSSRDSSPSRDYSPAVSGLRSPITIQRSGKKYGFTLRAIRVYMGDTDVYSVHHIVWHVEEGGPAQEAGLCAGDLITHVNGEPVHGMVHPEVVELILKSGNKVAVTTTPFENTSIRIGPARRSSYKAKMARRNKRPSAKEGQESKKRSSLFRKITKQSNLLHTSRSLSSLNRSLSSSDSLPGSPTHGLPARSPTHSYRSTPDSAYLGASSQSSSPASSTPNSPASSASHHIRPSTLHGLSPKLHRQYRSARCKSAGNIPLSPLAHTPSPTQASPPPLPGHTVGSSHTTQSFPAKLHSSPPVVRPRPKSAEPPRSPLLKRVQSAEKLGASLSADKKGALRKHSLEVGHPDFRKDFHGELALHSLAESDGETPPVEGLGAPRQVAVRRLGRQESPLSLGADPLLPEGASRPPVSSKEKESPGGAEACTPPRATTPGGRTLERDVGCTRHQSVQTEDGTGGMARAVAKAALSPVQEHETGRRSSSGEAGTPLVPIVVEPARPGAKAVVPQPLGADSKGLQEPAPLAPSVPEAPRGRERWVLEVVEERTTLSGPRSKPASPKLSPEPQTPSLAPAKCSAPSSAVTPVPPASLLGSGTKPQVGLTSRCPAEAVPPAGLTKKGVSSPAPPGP

EPHB2 = biological target: T31, EPHB2 (Homo sapiens, UniProt P29323); experiment: KINOMEscan; assay type: binding; settings: read-out: %Ctrl @ 1000 nM
T31 construct: purchased DiscoveRx KINOMEscan

CSF1R-autoinhibited = biological target: T32, CSF1R-autoinhibited (Homo sapiens, UniProt P07333); experiment: KINOMEscan; assay type: binding; settings: read-out: %Ctrl @ 1000 nM
T32 construct: purchased DiscoveRx KINOMEscan

SMYD2 = SMYD2 (Homo sapiens, UniProt Q9NRG4); experiment: AHNAK methylation Western blot in MDA-MB231 cells overexpressing SMYD2; assay type: cell-based; set-up: expressed in transfected cells
Sequence of SMYD2 (Q9NRG4 whole entry): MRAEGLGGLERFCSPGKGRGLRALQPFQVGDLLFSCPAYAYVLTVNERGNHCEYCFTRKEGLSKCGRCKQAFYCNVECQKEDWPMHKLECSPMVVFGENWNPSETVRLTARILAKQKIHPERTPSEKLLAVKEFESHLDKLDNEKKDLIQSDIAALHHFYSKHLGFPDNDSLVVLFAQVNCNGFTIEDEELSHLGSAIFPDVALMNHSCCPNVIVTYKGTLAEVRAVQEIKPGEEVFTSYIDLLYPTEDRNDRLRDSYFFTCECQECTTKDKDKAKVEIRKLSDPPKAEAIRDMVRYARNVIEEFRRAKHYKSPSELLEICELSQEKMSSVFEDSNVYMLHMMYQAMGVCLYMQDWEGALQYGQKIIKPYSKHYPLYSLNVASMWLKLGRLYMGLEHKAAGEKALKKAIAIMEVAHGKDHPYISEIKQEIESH

CCN(C(=O)CO)[C@H]1CN(/C(=N\C#N)Nc2cccc(OC(F)F)c2)N=C1c1ccc(Cl)c(Cl)c1 [(S)-4]
remaining binding at 1 µM (DMPK): 100% | remaining binding at 1 µM (ICK): 99% | remaining binding at 1 µM (RET(V804L)): 84% | remaining binding at 1 µM (EPHA7): 91% | remaining binding at 1 µM (NEK11): 77% | remaining binding at 1 µM (HASPIN): 100% | remaining binding at 1 µM (GAK): 100% | remaining binding at 1 µM (INSR): 78% | remaining binding at 1 µM (LZK): 83% | remaining binding at 1 µM (MUSK): 97% | remaining binding at 1 µM (SLK): 66% | remaining binding at 1 µM (GSK3A): 88% | Papp A→B at 2 h, 2 µM [1]: 3.4 ×10⁻⁶ cm/s | remaining binding at 1 µM (TGFBR2): 59% | remaining binding at 1 µM (CSNK2A2): 56% | remaining binding at 1 µM (CLK2): 97% | remaining binding at 1 µM (KIT): 100% | remaining binding at 1 µM (HIPK4): 100% | remaining binding at 1 µM (NEK2): 99% | remaining binding at 1 µM [2]: 95% | remaining binding at 1 µM (RIOK3): 46% | remaining binding at 1 µM (EGFR(E746-A750del)): 66% | remaining binding at 1 µM (SRMS): 94% | remaining binding at 1 µM (LOK): 69% | remaining binding at 1 µM (HIPK3): 100% | remaining binding at 1 µM (LIMK1): 100% | remaining binding at 1 µM (ERK8): 96% | remaining binding at 1 µM (PAK6): 100% | remaining binding at 1 µM (PIK3CA(E542K)): 92% | remaining binding at 1 µM (MLK3): 69% | remaining binding at 1 µM (MAST1): 83% | remaining binding at 1 µM (EPHB2): 74% | remaining binding at 1 µM (CSF1R-autoinhibited): 47% | AHNAK methylation (Western blot) (SMYD2): specifically reduced methylation of AHNAK; also recorded: inhibits concentration dependent

From article PMC4917279 (Journal of Medicinal Chemistry, 2016)
